Results published in article PMC12527977, “Discovery of a novel tetrapeptide as glucose homeostasis modulator with bifunctionalities of targeting DPP‐IV and microbiota” (iMeta, 2025).
Where two headings read alike, the source gives them in different places. Where a SMILES comes first, the peptide text is derived from it. Where no end group is shown, it is not given here.

Legend:
DPP-IV = DPP-IV (Homo sapiens, UniProt P27487); assay: DPP-IV inhibitory activity of peptides (DPP-IV-Glo Protease Assay Kit); format: biochemical; parameters: purchased QiZheng Biotech (Shanghai, China) IBDPP0901; conditions: for DPP-IV inhibitory activity: DPP-IV-Glo Protease Assay Kit, control = 0, in % (unit assumed); for DPP-IV inhibitory activity: test concentration or dose not given here
DPP-IV, sequence (P27487 whole entry): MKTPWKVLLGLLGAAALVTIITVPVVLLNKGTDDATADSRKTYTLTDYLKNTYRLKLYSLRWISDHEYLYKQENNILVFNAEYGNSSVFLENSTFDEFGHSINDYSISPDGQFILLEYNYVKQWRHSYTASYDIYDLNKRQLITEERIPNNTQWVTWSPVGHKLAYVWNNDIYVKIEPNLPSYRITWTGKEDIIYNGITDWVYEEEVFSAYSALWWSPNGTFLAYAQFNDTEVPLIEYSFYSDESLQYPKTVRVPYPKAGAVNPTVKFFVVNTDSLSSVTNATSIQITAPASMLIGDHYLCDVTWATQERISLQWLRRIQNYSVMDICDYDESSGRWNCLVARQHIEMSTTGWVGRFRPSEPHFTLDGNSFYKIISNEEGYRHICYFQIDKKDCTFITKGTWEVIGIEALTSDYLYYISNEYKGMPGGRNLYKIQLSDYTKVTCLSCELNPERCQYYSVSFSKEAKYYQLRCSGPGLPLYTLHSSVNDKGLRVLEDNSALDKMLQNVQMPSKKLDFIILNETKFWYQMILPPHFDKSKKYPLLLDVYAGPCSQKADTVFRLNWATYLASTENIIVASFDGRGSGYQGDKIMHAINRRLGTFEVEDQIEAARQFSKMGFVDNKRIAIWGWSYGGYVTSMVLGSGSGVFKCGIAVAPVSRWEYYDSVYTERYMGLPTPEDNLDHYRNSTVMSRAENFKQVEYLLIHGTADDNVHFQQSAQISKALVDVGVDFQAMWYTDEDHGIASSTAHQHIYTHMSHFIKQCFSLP

dipeptidyl peptidase IV = dipeptidyl peptidase IV (UniProt P27487)
dipeptidyl peptidase IV, sequence (P27487 41-765): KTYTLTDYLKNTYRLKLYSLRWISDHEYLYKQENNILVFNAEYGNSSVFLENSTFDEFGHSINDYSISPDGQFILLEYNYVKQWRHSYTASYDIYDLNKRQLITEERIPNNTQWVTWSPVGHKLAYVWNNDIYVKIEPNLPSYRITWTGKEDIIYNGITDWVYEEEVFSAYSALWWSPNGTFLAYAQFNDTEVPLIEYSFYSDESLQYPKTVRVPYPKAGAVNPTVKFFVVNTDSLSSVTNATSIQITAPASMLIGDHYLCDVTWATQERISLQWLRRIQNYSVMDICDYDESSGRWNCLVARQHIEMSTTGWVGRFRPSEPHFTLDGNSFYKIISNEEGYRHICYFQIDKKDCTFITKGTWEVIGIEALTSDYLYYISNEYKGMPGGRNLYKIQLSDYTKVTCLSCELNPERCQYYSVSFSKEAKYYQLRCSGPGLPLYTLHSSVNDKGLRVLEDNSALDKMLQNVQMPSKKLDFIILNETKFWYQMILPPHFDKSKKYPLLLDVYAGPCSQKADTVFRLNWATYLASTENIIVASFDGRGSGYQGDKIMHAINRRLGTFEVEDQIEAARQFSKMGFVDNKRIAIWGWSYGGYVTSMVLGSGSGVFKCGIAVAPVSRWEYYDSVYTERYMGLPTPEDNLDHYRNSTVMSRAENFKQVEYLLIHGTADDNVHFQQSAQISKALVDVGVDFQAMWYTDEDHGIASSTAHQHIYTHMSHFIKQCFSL

IC50 (DPP-IV; Table S3, read-out: IC50) [µM]	IC50 of inhibition of DPP-IV activity in vitro (dipeptidyl peptidase IV) [µM]	Molecule	DPP-IV inhibitory activity (DPP-IV; replicate 1, […])	DPP-IV inhibitory activity (DPP-IV; replicate 2, […])	DPP-IV inhibitory activity (DPP-IV; replicate 3, […])	other results
4130	–	CC(C)C[C@H](NC(=O)[C@@H](N)Cc1ccccc1)C(=O)N[C@@H](CCC(N)=O)C(=O)O [FLQ] (H-Phe-Leu-Gln-OH)	–	–	–	DPP-IV inhibitory activity (DPP-IV; replicate 1, sheet S2F): 25.2277; DPP-IV inhibitory activity (DPP-IV; replicate 2, sheet S2F): 32.7776; DPP-IV inhibitory activity (DPP-IV; replicate 3, sheet S2F): 32.9911
970	–	CC(C)C[C@H](NC(=O)[C@H](CCC(N)=O)NC(=O)[C@@H](N)Cc1ccccc1)C(=O)O [FQL] (H-Phe-Gln-Leu-OH)	–	–	–	DPP-IV inhibitory activity (DPP-IV; replicate 1, sheet S2F): 25.4694; DPP-IV inhibitory activity (DPP-IV; replicate 2, sheet S2F): 22.9016; DPP-IV inhibitory activity (DPP-IV; replicate 3, sheet S2F): 15.9024
590	–	CC(C)C[C@H](N)C(=O)N[C@@H](CC(N)=O)C(=O)N[C@@H](C)C(=O)N1CCC[C@H]1C(=O)O [LNAP] (H-LNAP-OH)	–	–	–	DPP-IV inhibitory activity (DPP-IV; replicate 1, sheet S2F): 13.9411; DPP-IV inhibitory activity (DPP-IV; replicate 2, sheet S2F): 16.0533; DPP-IV inhibitory activity (DPP-IV; replicate 3, sheet S2F): 12.0865
630	–	N[C@@H](Cc1c[nH]c2ccccc12)C(=O)N[C@@H](CC(=O)O)C(=O)N[C@@H](CO)C(=O)N[C@@H](Cc1ccc(O)cc1)C(=O)O [WDSY] (H-WDSY-OH)	–	–	–	DPP-IV inhibitory activity (DPP-IV; replicate 1, sheet S2F): 82.2499; DPP-IV inhibitory activity (DPP-IV; replicate 2, sheet S2F): 85.4257; DPP-IV inhibitory activity (DPP-IV; replicate 3, sheet S2F): 81.38
2400	–	CC(C)C[C@H](NC(=O)[C@@H](N)Cc1c[nH]c2ccccc12)C(=O)N[C@@H](CCC(=O)O)C(=O)O [WLE] (H-Trp-Leu-Glu-OH)	–	–	–	DPP-IV inhibitory activity (DPP-IV; replicate 1, sheet S2F): 21.3239; DPP-IV inhibitory activity (DPP-IV; replicate 2, sheet S2F): 16.4075; DPP-IV inhibitory activity (DPP-IV; replicate 3, sheet S2F): 17.3019
–	–	FDGEL [FDGEL]	28.637	26.7775	19.1292	IC50 (DPP-IV): 45100 µM
–	4130	FLQ (peptide)	–	–	–	–
–	–	FNPRG [FNPRG]	47.4625	43.5702	43.4293	IC50 (DPP-IV): 40500 µM
–	–	FNVDSE [FNVDSE]	14.7737	13.6123	13.4568	IC50 (DPP-IV): 84000 µM
–	970	FQL (peptide)	–	–	–	–
–	830	LLY (peptide)	–	–	–	–
–	–	PQNHA [PQNHA]	27.665	17.6559	16.9893	IC50 (DPP-IV): 24600 µM
–	730	PSSQQ (peptide)	–	–	–	–
–	–	VFTPQ [VFTPQ]	17.5527	15.1374	15.1911	IC50 (DPP-IV): 18500 µM
–	–	WIAVK [WIAVK]	55.8181	53.6066	51.0205	IC50 (DPP-IV): 600 µM
–	2400	WLE (peptide)	–	–	–	–
–	140	YNL (peptide)	–	–	–	–
–	280	YQL (peptide)	–	–	–	–
–	150	WNVN	–	–	–	–
–	18500	VFTPQ	–	–	–	–
–	600	WIAVK	–	–	–	–

Molecule	IC50 (DPP-IV; Table S3, read-out: IC50) [µM]	IC50 of inhibition of DPP-IV activity in vitro (dipeptidyl peptidase IV) [µM]	DPP-IV inhibitory activity (DPP-IV; replicate 1, […])	DPP-IV inhibitory activity (DPP-IV; replicate 2, […])	DPP-IV inhibitory activity (DPP-IV; replicate 3, […])	other results
CC(C)C[C@H](NC(=O)[C@H](CC(N)=O)NC(=O)[C@@H](N)Cc1ccc(O)cc1)C(=O)O [YNL] (H-Tyr-Asn-Leu-OH)	140	–	24.2295	23.675	21.7871	–
CC(C)C[C@H](NC(=O)[C@H](CCC(N)=O)NC(=O)[C@@H](N)Cc1ccc(O)cc1)C(=O)O [YQL] (H-Tyr-Gln-Leu-OH)	280	–	20.7988	21.5571	29.5286	–
YTPHW [YTPHW]	7110	–	18.6094	9.79	21.0526	–
